Test results as given in ChEMBL document CHEMBL4330075, “Discovery of Novel Quinoline-Chalcone Derivatives as Potent Antitumor Agents with Microtubule Polymerization Inhibitory Activity” (J Med Chem, 2019).

Legend:
KB = test: Antiproliferative activity against human KB cells after 72 hrs by MTT assay; assay type: functional, cell-based
HCT-8 = test: Antiproliferative activity against human HCT8 cells after 72 hrs by MTT assay; assay type: functional, cell-based; settings: HCT-8, 72 h
HepG2 = test: cells; settings: Homo sapiens, HepG2, 72 h
K562 = test: Antiproliferative activity against human K562 cells after 72 hrs by MTT assay; assay type: functional, cell-based; settings: K562, 72 h
MDA-MB-231 = test: Antiproliferative activity against human MDA-MB-231 cells after 72 hrs by MTT assay; assay type: functional, cell-based; settings: MDA-MB-231, 72 h
[1] = Selectivity index, ratio of IC50 for human LO2 cells to IC50 for human HepG2 cells; assay type: toxicity; settings: LO2 cells and HepG2 cells, read-out: Ratio IC50
L02 = test: Cytotoxicity against human LO2 cells after 72 hrs by MTT assay; assay type: cell-based; settings: L02, 72 h
[2] = Toxicity in ICR mouse xenografted with […] cells assessed as decrease in body weight at 8 mg/kg, iv administered every 2 days for 21 days and measured every 2 days; assay type: organism-based; settings: in vivo
[3] = Antitumor activity against […] H22 cells xenografted in ICR mouse assessed as reduction tumor weight at 8 mg/kg, iv administered every 2 days for 21 days and measured every 2 days relative to control; assay type: functional

| Structure (SMILES) | IC50 (KB) | IC50 (HCT-8) | IC50 (HepG2) | IC50 (K562) | IC50 (MDA-MB-231) | further results |
| --- | --- | --- | --- | --- | --- | --- |
| COc1ccc(/C=C(\C)C(=O)c2cc(N3CCCC3)nc3ccccc23)cc1O | – | – | – | 315 nM | – | – |
| COc1ccc(/C=C\c2cc(OC)c(OC)c(OC)c2)cc1O [COMBRETASTATIN A4] | – | – | – | 11 nM | – | – |
| C/C(=C\c1ccc2c(ccn2C)c1)C(=O)c1cc(C)nc2ccccc12 | 124 nM | 135 nM | 111 nM | 74 nM | 220 nM | – |
| COc1ccc(/C=C(\C)C(=O)c2cc(CO)nc3ccccc23)cc1O | 231 nM | 242 nM | 165 nM | 50 nM | 209 nM | – |
| Cc1cc(C(=O)/C=C/c2cccc3[nH]ccc23)c2ccccc2n1 | – | – | – | > 1000 nM | – | – |
| COc1ccc2c(/C=C/C(=O)c3cc(C)nc4ccccc34)c[nH]c2c1 | – | – | – | > 1000 nM | – | – |
| CCOC(=O)c1cc(C(=O)/C(C)=C/c2ccc(OC)c(O)c2)c2ccccc2n1 | – | – | – | 120 nM | – | – |
| CC(=O)O[C@H]1C(=O)[C@@]2(C)[C@H]([C@H](OC(=O)c3ccccc3)[C@]3(O)C[C@H](OC(=O)[C@H](O)[C@@H](NC(=O)c4ccccc4)c4ccccc4)C(C)=C1C3(C)C)[C@]1(OC(C)=O)CO[C@@H]1C[C@@H]2O [PACLITAXEL] | – | – | – | – | – | Activity [2]: Toxic; inhibition in vivo at 8 mg/kg [3]: 90.4% |
| COc1ccc(/C=C(\C)C(=O)c2cc(N3CCOCC3)nc3ccccc23)cc1O | – | – | – | 153 nM | – | – |

More lines, in order of falling IC50 (K562), values ahead:

| IC50 (KB) | IC50 (HCT-8) | IC50 (HepG2) | IC50 (K562) | IC50 (MDA-MB-231) | Structure (SMILES) | further results |
| --- | --- | --- | --- | --- | --- | --- |
| – | – | – | 1240 nM | – | COc1ccc(/C=C(\C)C(=O)c2cc(=O)[nH]c3ccccc23)cc1O | – |
| 189 nM | 210 nM | 223 nM | 850 nM | 195 nM | COc1ccc(/C=C/C(=O)c2cc(C)nc3ccccc23)cc1N | – |
| – | – | – | 330 nM | – | COc1ccc(CNc2cc(C(=O)/C(C)=C/c3ccc(OC)c(O)c3)c3ccccc3n2)cc1 | – |
| 123 nM | 137 nM | 121 nM | 127 nM | 112 nM | COc1ccc(/C=C/C(=O)c2cc(C)nc3ccccc23)cc1O | – |
| – | – | – | 110 nM | – | COc1ccc(/C=C(\C)C(=O)c2cc(C=O)nc3ccccc23)cc1O | – |
| – | – | – | 58 nM | – | COc1ccc(/C=C(\C)C(=O)c2cc(NC3CC3)nc3ccccc23)cc1O | – |
| 237 nM | 227 nM | 187 nM | 53 nM | 183 nM | COc1ccc(/C=C(\C)C(=O)c2cc(Cl)nc3ccccc23)cc1O | – |
| 26 nM | 37 nM | 24 nM | 15 nM | 30 nM | COc1ccc(/C=C(\C)C(=O)c2ccnc3ccccc23)cc1O | selectivity ratio [1]: 38.7; IC50 (L02): 928 nM |
